US20130344183A1, “NOVEL COMPOUND ISOLATED FROM […] ROXB AND USE THEREOF AS ANTIVIRAL AGENT” (priority 2011, published 2013)

Tested on: A/Vietnam/1194/04(H5N1)-NIBRG-14 highly pathogenic avian influenza virus
Type: cell-based

SMILES	Activity	log100TCID50/	viral titer lower than that of the control group [log]	CPE inhibitory concentration [µg/mL]
C=C1C(=O)OC2CC(C)(O)C3CCC(C)(O)C3CC12 (stereo not drawn) [Compound IV, 4β,10α-dihydroxy-guaia-8α,12-olide]	∘ (key: ∘: antiviral activity defined as a decrease of 4 log units)	5	4	
C=C1C(=O)O[C@@H]2[C@@H]1[C@H](OC(=O)/C(C)=C\C)[C@@]1(O)O[C@H](C[C@@H]1C)C[C@@](C)(O)[C@H]2OC(=O)CC(C)C [Compound III, 2α,5-epoxy-5,10-dihydroxy-6α-angeloyloxy-9β-(3-methyl-butanoyloxy)-gemacran-8α,12-olide]		0		>10
C=C1C(=O)O[C@@H]2[C@@H]1[C@H](OC(=O)/C(C)=C\C)[C@@]1(O)O[C@H](C[C@@H]1C)C[C@@](C)(O)[C@H]2OC(=O)C(C)C [Compound I, 2α,5-epoxy-5,10-dihydroxy-6α-angeloyloxy-9β-isobutyloxy-germacran-8α,12-olide]		0		>10
